We go through 13 molecules from patent publication US10508098B2, “Quinazolinones and azaquinazolinones as ubiquitin-specific protease 7 inhibitors” (FORMA Therapeutics, Inc., priority 2015, dated 2019).

The assay addresses USP7 (Homo sapiens (Human), UniProt Q93009). Briefly: USP7 Assays A and B (Ubiquitin-Rhodamine 110 assay). The format is biochemical. Particulars: USP7 (208-1102) 6*His; substrate Ub-Rh110 25 nM; assays A and B not distinguished. The protocol: Example 9: USP7 Assay A (Ubitquin-Rhodamine 110 Assay)
Each assay was performed in a final volume of 15 μL in assay buffer containing 20 mM Tris-HCl (pH 8.0, (1M Tris-HCl, pH 8.0 solution; Corning 46-031-CM)), 1 mM GSH (L-Glutathione reduced; Sigma #G4251), 0.03% BGG (0.22 μM filtered, Sigma, #G7516-25G), and 0.01% Triton X-100 (Sigma, #T9284-10L). Nanoliter quantities of either an 8-point or 10-point, 3-fold serial dilution in DMSO was pre-dispensed into assay plates (Perkin Elmer, ProxiPlate-384 F Plus, #6008269) for a final test concentration range of either 25 μM to 11 nM or 25 μM to 1.3 nM, respectively. The final concentration of the enzyme (USP7, construct USP7 (208-1102) 6*His, Viva Biotech) in the assay was 62.5 pM. Final substrate (Ub-Rh110; Ubiquitin-Rhodamine 110, R&D Systems #U-555) concentration was 25 nM with [Ub-Rh110]<<Km. 5 μL of 2× enzyme was added to assay plates (pre-stamped with compound) preincubated with USP7 for 30 min and then 5 μL of 2×Ub-Rh110 was added to assay plates. Plates were incubated stacked for 20 min at room temperature before 5 μL of stop solution (final concentration of 10 mM citric acid in assay buffer (Sigma, #251275-500G)). Fluorescence was read on the Envision (Excitation at 485 nm and Emission at 535 nm; Perkin Elmer) or on the PheraSTAR (Excitation at 485 nm and Emission at 535 nm; BMG Labtech).
Example 10: USP7 Assay B (Ubitquin-Rhodamine 110 Assay)
Each assay was performed in a final volume of 20 μL in assay buffer containing 20 mM Tris-HCl (pH 8.0, (1M Tris-HCl, pH 8.0 solution; Corning 46-031-CM)), 2 mM CaCl2 (1M Calcium Chloride solution; Sigma #21114) 1 mM GSH (L-Glutathione reduced; Sigma #G4251), 0.01% Prionex (0.22 μM filtered, Sigma #G-0411), and 0.01% Triton X-100. Stock compound solutions were stored at −20° C. as 10 mM in DMSO. Up to 1 month prior to the assay, 2 mM test compounds were pre-dispensed into assay plates (Black, low volume; Corning #3820) and frozen at −20° C. Prestamped assay plates were allowed to come to room temperature on the day of the assay. For the screen, 100 nL of 2 mM was pre-dispensed for a final screening concentration of 10 μM (DMSO(fc)=0.5%). For follow-up studies, 250 nL of an 8-point, 3-fold serial dilution in DMSO was pre-dispensed into assay plates for a final test concentration of 25 μM-11 nM (1.25% DMSO final concentration). Unless otherwise indicated, all follow-up assays were run on triplecate plates. Enzyme (USP7, construct Met (208-1102)-TEV-6*His; Viva Q93009-1) concentration and incubation times were optimized for the maximal signal-to-background while maintaining initial velocity conditions at a fixed substrate concentration. The final concentration of the enzyme in the assay was either 75 pM or 250 pM. Final substrate (Ub-Rh110; Ubiquitin-Rhodamine 110, R&D Systems (biotechne)#U-555) concentration was 25 nM with [Ub-Rh110]<<Km. Pre-stamped with compounds were either not preincubated or preincubated with USP7 between 30 to 120 min prior to the addition of 10 μL of 2×Ub-Rh110 to compound plates. Plates were incubated stacked for either 23 or 45 min at room temperature before fluorescence was read on the Envision (Excitation at 485 nm and Emission at 535 nm; Perkin Elmer) or on the PheraSTAR (Excitation at 485 nm and Emission at 535 nm; BMG Labtech).
Data from USP7 Assays A and B were reported as percent inhibition (inh) compared with control wells based on the following equation: % inh=1−((FLU−AveLow)/(AveHigh−AveLow)) where FLU=measured Fluorescence. AveLow=average Fluorescence of no enzyme control (n=16). AveHigh=average Fluorescence of DMSO control (n=16). IC50 values were determined by curve fitting of the standard 4 parameter logistic fitting algorithm included in the Activity Base software package: IDBS XE Designer Model205. Data is fitted using the Levenburg Marquardt algorithm.

USP7, sequence (Q93009 208-1102): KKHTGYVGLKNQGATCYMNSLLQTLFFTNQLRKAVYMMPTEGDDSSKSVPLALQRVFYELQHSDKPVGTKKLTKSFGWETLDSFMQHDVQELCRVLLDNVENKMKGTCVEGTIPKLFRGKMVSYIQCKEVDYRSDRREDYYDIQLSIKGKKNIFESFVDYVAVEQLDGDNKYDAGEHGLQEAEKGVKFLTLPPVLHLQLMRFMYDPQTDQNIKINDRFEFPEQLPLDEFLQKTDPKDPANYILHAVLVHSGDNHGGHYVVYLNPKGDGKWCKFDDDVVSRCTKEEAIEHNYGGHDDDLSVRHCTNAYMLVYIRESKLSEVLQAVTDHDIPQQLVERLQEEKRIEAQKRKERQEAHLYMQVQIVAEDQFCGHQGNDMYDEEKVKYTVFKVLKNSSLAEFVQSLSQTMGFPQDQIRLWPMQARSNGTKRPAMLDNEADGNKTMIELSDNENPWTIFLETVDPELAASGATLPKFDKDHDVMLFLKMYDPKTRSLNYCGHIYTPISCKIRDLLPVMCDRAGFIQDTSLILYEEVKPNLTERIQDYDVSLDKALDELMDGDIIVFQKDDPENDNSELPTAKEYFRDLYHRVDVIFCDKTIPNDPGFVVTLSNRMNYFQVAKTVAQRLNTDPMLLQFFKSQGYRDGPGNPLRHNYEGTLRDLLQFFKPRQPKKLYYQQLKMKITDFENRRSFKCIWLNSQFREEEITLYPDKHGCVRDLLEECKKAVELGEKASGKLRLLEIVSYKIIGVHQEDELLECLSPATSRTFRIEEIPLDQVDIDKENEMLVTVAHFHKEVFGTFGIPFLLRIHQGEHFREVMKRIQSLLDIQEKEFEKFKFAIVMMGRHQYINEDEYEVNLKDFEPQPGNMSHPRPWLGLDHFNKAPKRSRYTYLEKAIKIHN

Turning to `O=C(c1ccccc1)N1CCC(O)(Cn2cnc3c(-c4ccccc4)cccc3c2=O)CC1` [Compound I-9, 3-((1-benzoyl-4-hydroxypiperidin-4-yl)methyl)-8-phenylquinazolin-4(3H)-one], the 50% inhibitory concentration (IC50) (commonly the point on the concentration scale where inhibition reaches its midpoint) is 1000 to 10000 nM. The result for `CC(CC(=O)N1CCC(O)(Cn2cnc3cnccc3c2=O)CC1)c1ccccc1` (stereo not shown) [Compound I-12, 3-((4-hydroxy-1-(3-phenylbutanoyl)piperidin-4-yl)methyl)pyrido[3,4-d]pyrimidin-4(3H)-one] reads 1000 to 10000 nM; that for `Cc1ccc2c(=O)n(CC3(O)CCN(C(=O)c4ccc5c(c4)CCN5Cc4ccccc4)CC3)cnc2c1` [Compound I-7, 3-((1-(1-benzylindoline-5-carbonyl)-4-hydroxypiperidin-4-yl)methyl)-7-methylquinazolin-4(3H)-one], 1000 to 10000 nM; that for `COc1ccc2c(=O)n(CC3(O)CCN(C(=O)CC(C)c4ccccc4)CC3)cnc2c1` (stereo not shown) [Compound I-1, 3-((4-hydroxy-1-(3-phenylbutanoyl)piperidin-4-yl)methyl)-7-methoxyquinazolin-4(3H)-one], below 200 nM. The result for `COc1ccc2c(=O)n(CC3(O)CCN(C(=O)C[C@@H](C)c4ccccc4)CC3)cnc2c1` [Compound I-5, (R)-3-((4-hydroxy-1-(3-phenylbutanoyl)piperidin-4-yl)methyl)-7-methoxyquinazolin-4(3H)-one] reads below 200 nM.

`CC(CC(=O)N1CCC(O)(Cn2cnc3cc(N)ccc3c2=O)CC1)c1ccccc1` (stereo not shown) [Compound I-3, 7-amino-3-((4-hydroxy-1-(3-phenylbutanoyl)piperidin-4-yl)methyl)quinazolin-4(3H)-one]: the IC50 is below 200 nM. As for `CC(CC(=O)N1CCC(O)(Cn2cnc3cccnc3c2=O)CC1)c1ccccc1` (stereo not shown) [Compound I-13, 3-((4-hydroxy-1-(3-phenylbutanoyl)piperidin-4-yl)methyl)pyrido[3,2-d]pyrimidin-4(3H)-one], the figure is 200 to 1000 nM. As for `Cc1cccc2c(=O)n(CC3(O)CCN(C(=O)C[C@@H](C)c4ccccc4)CC3)cnc12` [Compound I-6, (R)-3-((4-hydroxy-1-(3-phenylbutanoyl)piperidin-4-yl)methyl)-8-methylquinazolin-4(3H)-one], the figure is below 200 nM; as for `Cc1cccc2c(=O)n(CC3(O)CCN(C(=O)CC(C)c4ccccc4)CC3)cnc12` (stereo not shown) [Compound I-2, 3-((4-hydroxy-1-(3-phenylbutanoyl)piperidin-4-yl)methyl)-8-methylquinazolin-4(3H)-one], below 200 nM; as for `CC(=O)Nc1ccc2c(=O)n(CC3(O)CCN(C(=O)CC(C)c4ccccc4)CC3)cnc2c1` (stereo not shown) [Compound I-4, N-(3-((4-hydroxy-1-(3-phenylbutanoyl)piperidin-4-yl)methyl)-4-oxo-3,4-dihydroquinazolin-7-yl)acetamide], below 200 nM.

For `O=C(c1ccc(F)cc1)N1CCC(O)(Cn2cnc3c(Oc4ccc(F)cc4)cccc3c2=O)CC1` [Compound I-10, 3-((1-(4-fluorobenzoyl)-4-hydroxypiperidin-4-yl)methyl)-8-(4-fluorophenoxy)quinazolin-4(3H)-one], the IC50 lay within 1000 to 10000 nM. As for `CC(CC(=O)N1CCC(O)(Cn2cnc3ncccc3c2=O)CC1)c1ccccc1` (stereo not shown) [Compound I-11, 3-((4-hydroxy-1-(3-phenylbutanoyl)piperidin-4-yl)methyl)pyrido[2,3-d]pyrimidin-4(3H)-one], the figure is above 10000 nM; as for `O=C(c1ccccc1)N1CCC(O)(Cn2cnc3cc(-c4ccccc4)ccc3c2=O)CC1` [Compound I-8, 3-((1-benzoyl-4-hydroxypiperidin-4-yl)methyl)-7-phenylquinazolin-4(3H)-one], above 10000 nM.
